Assay results taken from paper PMC3569412, “In Vivo Imaging with Fluorescent Smart Probes to Assess Treatment Strategies for Acute Pancreatitis” (PLoS ONE, 2013).
Values belong to the compound of their own block, whether it stands above or below them.

Legend:
[1] = tested on: trypsin activity in rat pancreas; assay: in vivo optical imaging of activatable probe signal in pancreas, caerulein-injection pancreatitis model; settings: Camostat 300 mg/kg orally; vs untreated caerulein animals; P<0.001
Procedure: 280–320 g female Sprague Dawley rats were received from Charles Rivers Laboratory. Animals were maintained in a facility with a controlled temperature (21–24°C) and lighting (12∶12 h light: dark cycle). Animals were placed on a chlorophyll-free diet (Harlan TK2916) 10 days prior and for the duration of the imaging study to reduce the amount of autofluorescence and had free access to drinking water. One day prior to the experiment, animals were shaved at the abdomen for imaging studies. The pancreatitis model was induced by hyperstimulation with the cholecystokinin (CCK) analog caerulein (Sigma-Aldrich, St. Louis, MO). […]
(§1) In vivo optical imaging studies were conducted using a spectral imaging system, Maestro (Perkin Elmer, Boston, MA). […] Animals were imaged before the start of the study for background/autofluorescence, and at 20 minutes after the mPEG-PL-Cy5.5 probe administration for basal increase in fluorescence due to probe administration. […]
Region of the pancreas and liver were determined and defined from whole body clean images acquired after sacrificing the animals, and used on all corresponding in vivo images in the same animal. Fluorescent intensity at various time points from the same animal were normalized by fluorescence intensity determined before the start of the caerulein insult and the change in signal intensity was then plotted as a function of time.

h cationic trypsin = h cationic trypsin (Homo sapiens, UniProt P07477); assay: protease selectivity panel, enzyme activity assay; type: biochemical; settings: 1 h pre-incubation RT
From the text: (§2) The three drug-like compounds tested in the optical molecular imaging model were characterized for selectivity against a panel of recombinant proteases available at Novartis. The biochemical enzyme activity assays were based on the cleavage of peptidic substrates that are fluorescently labeled. In case of rhodamine-110 label fluorescence intensity and in case of PT14 label fluorescence lifetime was used as readout. The effect of the compound on the enzymatic activity was obtained from the linear part of the substrate cleavage progress curve at substrate concentrations well below KM, typically at 1 µM. All enzyme assays were conducted in 384-well plates with a final assay volume of 25 µl. Enzyme and compound (11 different concentrations from 100 µM to 0.0003 µM) were pre-incubated for one hour at room temperature (RT). Subsequently substrate was added and incubated for 1 h at RT prior to measurement.

h cathepsin S = h cathepsin S (Homo sapiens, UniProt P25774); assay: protease selectivity panel, enzyme activity assay; type: biochemical; settings: 1 h pre-incubation RT
From the text: as §2

h neutrophil elastase = h neutrophil elastase (Homo sapiens, UniProt P08246); assay: protease selectivity panel, enzyme activity assay; type: biochemical; settings: 1 h pre-incubation RT
h neutrophil elastase, sequence (P08246 30-267): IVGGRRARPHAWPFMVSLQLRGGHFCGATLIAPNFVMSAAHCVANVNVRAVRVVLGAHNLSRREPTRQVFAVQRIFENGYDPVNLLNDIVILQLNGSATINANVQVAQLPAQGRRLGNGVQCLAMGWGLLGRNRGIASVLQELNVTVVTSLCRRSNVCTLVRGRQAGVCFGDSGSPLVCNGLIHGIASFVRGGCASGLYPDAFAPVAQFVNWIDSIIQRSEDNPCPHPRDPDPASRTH
From the text: as §2

h factor XIIa = h factor XIIa (Homo sapiens, UniProt P00748); assay: protease selectivity panel, enzyme activity assay; type: biochemical; settings: 1 h pre-incubation RT
h factor XIIa, sequence (P00748 373-615 limits assumed): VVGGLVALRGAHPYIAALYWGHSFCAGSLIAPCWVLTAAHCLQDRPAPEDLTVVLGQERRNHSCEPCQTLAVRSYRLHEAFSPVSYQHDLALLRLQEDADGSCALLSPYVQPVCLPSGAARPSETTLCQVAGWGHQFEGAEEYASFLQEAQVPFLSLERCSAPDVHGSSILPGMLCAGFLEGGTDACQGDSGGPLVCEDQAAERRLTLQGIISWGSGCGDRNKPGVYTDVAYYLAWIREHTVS
From the text: as §2

h cathepsin C = h cathepsin C (Homo sapiens, UniProt P53634); assay: protease selectivity panel, enzyme activity assay; type: biochemical; settings: 1 h pre-incubation RT
h cathepsin C, sequence (P53634 25-463): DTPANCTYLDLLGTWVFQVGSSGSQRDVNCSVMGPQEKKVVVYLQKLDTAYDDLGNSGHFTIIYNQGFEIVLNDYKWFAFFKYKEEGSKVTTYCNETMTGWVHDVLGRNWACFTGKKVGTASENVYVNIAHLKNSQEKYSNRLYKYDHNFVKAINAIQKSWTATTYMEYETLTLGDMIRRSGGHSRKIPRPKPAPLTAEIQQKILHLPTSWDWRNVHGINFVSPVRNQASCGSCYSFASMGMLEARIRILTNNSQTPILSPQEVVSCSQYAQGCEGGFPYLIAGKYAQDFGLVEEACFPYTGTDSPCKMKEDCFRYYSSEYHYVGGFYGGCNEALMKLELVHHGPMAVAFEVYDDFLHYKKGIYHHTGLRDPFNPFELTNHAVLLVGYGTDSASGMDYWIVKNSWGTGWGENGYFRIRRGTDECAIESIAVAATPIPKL
From the text: as §2

h kallikrein 7 = h kallikrein 7 (Homo sapiens, UniProt P49862); assay: protease selectivity panel, enzyme activity assay; type: biochemical; settings: 1 h pre-incubation RT
From the text: as §2

h factor VIIa = h factor VIIa (Homo sapiens, UniProt P08709); assay: protease selectivity panel, enzyme activity assay; type: biochemical; settings: 1 h pre-incubation RT
h factor VIIa, sequence (P08709 213-466 limits assumed): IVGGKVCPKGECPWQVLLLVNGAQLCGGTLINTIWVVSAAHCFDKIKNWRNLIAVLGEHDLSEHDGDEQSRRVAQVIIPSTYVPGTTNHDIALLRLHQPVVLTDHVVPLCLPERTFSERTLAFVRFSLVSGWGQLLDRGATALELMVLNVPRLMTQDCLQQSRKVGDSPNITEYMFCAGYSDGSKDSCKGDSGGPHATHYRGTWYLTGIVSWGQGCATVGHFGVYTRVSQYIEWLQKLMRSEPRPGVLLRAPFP
h factor VIIa, sequence (P08709 61-212 partner limits assumed): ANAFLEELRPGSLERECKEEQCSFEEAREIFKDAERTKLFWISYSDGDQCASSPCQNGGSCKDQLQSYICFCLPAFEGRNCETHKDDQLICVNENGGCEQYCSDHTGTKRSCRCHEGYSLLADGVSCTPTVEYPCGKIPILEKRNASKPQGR
From the text: as §2

h cathepsin K = h cathepsin K (Homo sapiens, UniProt P43235); assay: protease selectivity panel, enzyme activity assay; type: biochemical; settings: 1 h pre-incubation RT
h cathepsin K, sequence (P43235 115-329): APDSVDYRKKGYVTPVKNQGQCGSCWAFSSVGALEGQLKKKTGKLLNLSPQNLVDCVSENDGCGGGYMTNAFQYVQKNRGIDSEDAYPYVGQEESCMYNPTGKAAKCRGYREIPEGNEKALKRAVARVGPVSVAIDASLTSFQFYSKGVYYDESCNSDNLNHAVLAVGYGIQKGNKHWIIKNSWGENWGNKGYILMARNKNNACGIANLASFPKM
From the text: as §2

h cathepsin L = h cathepsin L (Homo sapiens, UniProt P07711); assay: protease selectivity panel, enzyme activity assay; type: biochemical; settings: 1 h pre-incubation RT
h cathepsin L, sequence (P07711 114-333): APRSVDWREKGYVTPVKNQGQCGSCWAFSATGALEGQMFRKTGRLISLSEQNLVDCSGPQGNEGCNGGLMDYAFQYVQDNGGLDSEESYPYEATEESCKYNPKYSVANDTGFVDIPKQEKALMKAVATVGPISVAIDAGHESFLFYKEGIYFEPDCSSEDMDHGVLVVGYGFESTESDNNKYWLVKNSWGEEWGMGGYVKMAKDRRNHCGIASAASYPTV
From the text: as §2

h factor Xa = h factor Xa (Homo sapiens, UniProt P00742); assay: protease selectivity panel, enzyme activity assay; type: biochemical; settings: 1 h pre-incubation RT
h factor Xa, sequence (P00742 235-488 limits assumed): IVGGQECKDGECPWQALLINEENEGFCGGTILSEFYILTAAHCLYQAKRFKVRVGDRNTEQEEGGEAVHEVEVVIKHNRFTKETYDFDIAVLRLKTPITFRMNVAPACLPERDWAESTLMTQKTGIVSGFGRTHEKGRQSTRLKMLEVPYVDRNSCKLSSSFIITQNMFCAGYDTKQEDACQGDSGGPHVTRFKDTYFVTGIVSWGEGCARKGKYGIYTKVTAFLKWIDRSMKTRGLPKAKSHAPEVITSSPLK
h factor Xa, sequence (P00742 41-179 partner limits assumed): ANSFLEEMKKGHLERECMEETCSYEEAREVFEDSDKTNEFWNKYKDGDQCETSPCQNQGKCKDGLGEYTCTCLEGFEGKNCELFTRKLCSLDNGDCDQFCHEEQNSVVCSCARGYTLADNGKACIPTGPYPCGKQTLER
From the text: as §2

h kallikrein 1 = h kallikrein 1 (Homo sapiens, UniProt P06870); assay: protease selectivity panel, enzyme activity assay; type: biochemical; settings: 1 h pre-incubation RT
h kallikrein 1, sequence (P06870 25-262): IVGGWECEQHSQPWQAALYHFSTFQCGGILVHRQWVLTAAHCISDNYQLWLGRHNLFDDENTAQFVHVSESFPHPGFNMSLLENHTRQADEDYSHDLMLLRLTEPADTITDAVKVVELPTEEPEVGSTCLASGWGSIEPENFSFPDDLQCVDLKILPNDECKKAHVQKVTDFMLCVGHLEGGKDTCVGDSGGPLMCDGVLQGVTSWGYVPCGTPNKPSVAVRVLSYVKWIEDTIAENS
From the text: as §2

h cathepsin B = h cathepsin B (Homo sapiens, UniProt P07858); assay: protease selectivity panel, enzyme activity assay; type: biochemical; settings: 1 h pre-incubation RT
From the text: as §2

h matriptase = h matriptase (Homo sapiens, UniProt Q9Y5Y6); assay: protease selectivity panel, enzyme activity assay; type: biochemical; settings: 1 h pre-incubation RT
h matriptase, sequence (Q9Y5Y6 whole entry): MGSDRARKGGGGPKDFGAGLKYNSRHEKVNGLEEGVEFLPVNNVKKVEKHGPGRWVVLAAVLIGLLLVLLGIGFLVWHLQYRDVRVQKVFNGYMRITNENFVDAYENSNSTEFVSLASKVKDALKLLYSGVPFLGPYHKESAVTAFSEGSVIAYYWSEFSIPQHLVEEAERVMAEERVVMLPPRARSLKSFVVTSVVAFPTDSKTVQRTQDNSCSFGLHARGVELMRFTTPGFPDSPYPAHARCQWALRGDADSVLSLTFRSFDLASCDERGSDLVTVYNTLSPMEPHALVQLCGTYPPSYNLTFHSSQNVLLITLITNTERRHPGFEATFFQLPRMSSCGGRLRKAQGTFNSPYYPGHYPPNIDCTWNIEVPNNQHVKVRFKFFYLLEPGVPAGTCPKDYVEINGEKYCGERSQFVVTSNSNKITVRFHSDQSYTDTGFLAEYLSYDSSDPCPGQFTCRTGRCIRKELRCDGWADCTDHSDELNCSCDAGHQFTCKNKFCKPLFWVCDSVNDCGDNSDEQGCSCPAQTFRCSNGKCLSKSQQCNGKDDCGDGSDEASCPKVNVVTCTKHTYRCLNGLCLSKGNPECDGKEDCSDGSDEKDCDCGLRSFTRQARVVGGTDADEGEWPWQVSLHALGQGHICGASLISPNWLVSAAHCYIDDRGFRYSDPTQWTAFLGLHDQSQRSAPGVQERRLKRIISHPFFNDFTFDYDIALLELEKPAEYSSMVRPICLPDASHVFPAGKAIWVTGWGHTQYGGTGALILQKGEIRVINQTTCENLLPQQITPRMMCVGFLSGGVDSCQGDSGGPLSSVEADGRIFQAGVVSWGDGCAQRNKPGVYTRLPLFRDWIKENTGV
From the text: as §2

h chymase = h chymase (Homo sapiens, UniProt P23946); assay: protease selectivity panel, enzyme activity assay; type: biochemical; settings: 1 h pre-incubation RT
h chymase, sequence (P23946 22-247): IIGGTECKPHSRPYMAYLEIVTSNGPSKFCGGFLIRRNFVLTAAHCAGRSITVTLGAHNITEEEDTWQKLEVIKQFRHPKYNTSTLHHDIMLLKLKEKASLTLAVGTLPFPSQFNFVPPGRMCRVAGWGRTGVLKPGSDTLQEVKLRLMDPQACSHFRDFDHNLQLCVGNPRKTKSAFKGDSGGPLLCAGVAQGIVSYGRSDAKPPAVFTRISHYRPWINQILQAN
From the text: as §2

h cathepsin G = h cathepsin G (Homo sapiens, UniProt P08311); assay: protease selectivity panel, enzyme activity assay; type: biochemical; settings: 1 h pre-incubation RT
h cathepsin G, sequence (P08311 21-255): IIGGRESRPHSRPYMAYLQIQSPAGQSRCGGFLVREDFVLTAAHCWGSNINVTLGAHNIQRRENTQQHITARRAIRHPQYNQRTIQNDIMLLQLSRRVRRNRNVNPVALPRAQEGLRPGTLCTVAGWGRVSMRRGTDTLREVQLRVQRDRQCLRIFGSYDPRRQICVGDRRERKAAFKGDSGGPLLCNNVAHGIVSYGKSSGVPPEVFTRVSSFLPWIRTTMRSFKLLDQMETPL
From the text: as §2

h proteinase 3 = h proteinase 3 (Homo sapiens, UniProt P24158); assay: protease selectivity panel, enzyme activity assay; type: biochemical; settings: 1 h pre-incubation RT
h proteinase 3, sequence (P24158 28-256): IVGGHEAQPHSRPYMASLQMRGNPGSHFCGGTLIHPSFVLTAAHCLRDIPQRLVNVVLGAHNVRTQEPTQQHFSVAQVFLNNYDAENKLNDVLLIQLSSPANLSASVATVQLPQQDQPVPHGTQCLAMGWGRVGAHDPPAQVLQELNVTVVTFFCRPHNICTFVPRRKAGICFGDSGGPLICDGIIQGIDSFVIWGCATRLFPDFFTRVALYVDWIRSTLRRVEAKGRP
From the text: as §2

h factor XIa = h factor XIa (Homo sapiens, UniProt P03951); assay: protease selectivity panel, enzyme activity assay; type: biochemical; settings: 1 h pre-incubation RT
h factor XIa, sequence (P03951 388-625 limits assumed): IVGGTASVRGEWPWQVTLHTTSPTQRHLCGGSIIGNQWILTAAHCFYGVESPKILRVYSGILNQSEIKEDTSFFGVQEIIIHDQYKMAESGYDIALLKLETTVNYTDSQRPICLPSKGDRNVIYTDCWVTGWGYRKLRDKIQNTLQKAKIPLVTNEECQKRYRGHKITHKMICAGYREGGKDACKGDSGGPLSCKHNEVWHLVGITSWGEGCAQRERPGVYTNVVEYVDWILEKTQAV
From the text: as §2

h kallikrein 5 = h kallikrein 5 (Homo sapiens, UniProt Q9Y337); assay: protease selectivity panel, enzyme activity assay; type: biochemical; settings: 1 h pre-incubation RT
From the text: as §2

h plasma kallikrein = h plasma kallikrein (Homo sapiens, UniProt P03952); assay: protease selectivity panel, enzyme activity assay; type: biochemical; settings: 1 h pre-incubation RT
h plasma kallikrein, sequence (P03952 20-638): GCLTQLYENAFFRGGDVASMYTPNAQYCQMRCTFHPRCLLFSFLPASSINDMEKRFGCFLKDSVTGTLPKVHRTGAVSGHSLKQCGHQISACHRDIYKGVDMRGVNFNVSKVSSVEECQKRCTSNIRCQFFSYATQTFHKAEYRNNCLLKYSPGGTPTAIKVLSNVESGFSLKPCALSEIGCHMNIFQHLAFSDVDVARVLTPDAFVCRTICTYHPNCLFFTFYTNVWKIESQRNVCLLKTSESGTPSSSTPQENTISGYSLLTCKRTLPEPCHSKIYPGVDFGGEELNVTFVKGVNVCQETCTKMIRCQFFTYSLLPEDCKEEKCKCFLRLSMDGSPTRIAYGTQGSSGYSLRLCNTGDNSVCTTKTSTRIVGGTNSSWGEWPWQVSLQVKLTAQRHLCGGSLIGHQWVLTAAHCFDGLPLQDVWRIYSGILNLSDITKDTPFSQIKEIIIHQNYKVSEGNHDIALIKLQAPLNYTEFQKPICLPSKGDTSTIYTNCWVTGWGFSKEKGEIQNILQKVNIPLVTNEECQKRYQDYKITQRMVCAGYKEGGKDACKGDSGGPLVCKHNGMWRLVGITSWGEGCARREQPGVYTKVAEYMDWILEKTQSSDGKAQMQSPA
From the text: as §2

[2] = tested on: trypsin activity in rat pancreas; assay: ex vivo fluorescence imaging of excised pancreas (total signal intensity of activated probe); type: in vivo; settings: Camostat 300 mg/kg orally; vs untreated animals; P<0.01
Procedure: 280–320 g female Sprague Dawley rats were received from Charles Rivers Laboratory. Animals were maintained in a facility with a controlled temperature (21–24°C) and lighting (12∶12 h light: dark cycle). Animals were placed on a chlorophyll-free diet (Harlan TK2916) 10 days prior and for the duration of the imaging study to reduce the amount of autofluorescence and had free access to drinking water. One day prior to the experiment, animals were shaved at the abdomen for imaging studies. The pancreatitis model was induced by hyperstimulation with the cholecystokinin (CCK) analog caerulein (Sigma-Aldrich, St. Louis, MO). […] For studies with Novartis166 and Novartis848, varying concentrations, in a solution, were administered intraperitonealy (IP) only once, one hour before caerulein administration. Self-quenched protease activatable mPEG-PL-Cy5.5 probe was administered to all animals via the tail vein at a dose of 80 nmol/kg 40 minutes prior to the start of caerulein administration for measuring the amount of activated trypsin in the pancreas. […]
as §1

[3] = tested on: rat caerulein-injection pancreatitis model; assay: in vivo edema imaging with blood pool agent Angiosense 680; settings: Camostat 300 mg/kg orally; three caerulein doses SC
trypsin [4] = assay: assessment of trypsin concentration in pancreas extracts; type: in vivo, rat; settings: Camostat 300 mg/kg orally; vs untreated saline animals
Procedure: The pancreas was removed from the euthanized animals, weighted and transferred into Dispomix tubes (Miltenyi Biotec, Bergisch Gladbach, Germany). After the addition of ice-cold PBS buffer (1 µl per […]), the pancreas was homogenized with a gentleMACS™ Dissociator (Miltenyi Biotec, Bergisch Gladbach, Germany). The homogenate was centrifuged at 4°C and 20,000 g for 10 min. The supernatant was stored at −20°C. The activity assay was performed at room temperature in 384-well plates in a total assay volume of 20 µl per well. For fluorescence quantification a Safire2 (Tecan, Maennedorf, Switzerland) instrument was used with fluorescence excitation and emission wavelengths of 485 nm and 535 nm, respectively. 10 µl of dilutions of extracts (typical range: 1∶500 to 1∶2,000) were transferred to 384 well assay plates. […] The enzymatic activity in the pancreatic extract was obtained from the linear progression curves and determined after one hour. Signal-to-background (S/B) values within the linear range of the assay signal were selected to calculate the trypsin concentrations of the extract analyzed. […] The amount of trypsin was calculated by transforming S/B levels obtained in the activity assay of extract dilutions fulfilling initial enzyme velocity criteria into trypsin concentration values via a calibration curve using recombinant rat trypsin S1-94.

h pancreatic elastase = assay: protease selectivity panel, enzyme activity assay; type: biochemical, human; settings: 1 h pre-incubation RT
From the text: as §2

h chymotrypsin = assay: protease selectivity panel, enzyme activity assay; type: biochemical, human; settings: 1 h pre-incubation RT
From the text: as §2

trypsin [5] = assay: mPEG-PL-Cy5.5 probe activation by pancreatic enzymes with or without SPINK1; type: biochemical; settings: 0.2 µM probe, 100 nM enzyme, 1 µM SPINK1
Procedure: All enzyme assays were conducted in 384-well plates with a final substrate ( = mPEG-PL-Cy5.5 probe) concentration of 0.2 µM diluted in the appropriate assay buffer in a final assay volume of 25 µl. Enzyme and, in cases where applied, SPINK-1 (final assay concentration: 1 µM) were pre-incubated for one hour at room temperature. Subsequently substrate was added and incubated for 3 h at 37°C prior to measurement. All enzymes were either commercially obtained or prepared as described previously, [17], [18], [19].
Enzyme, SPINK-1 and substrate solutions were transferred to 384-well plates by means of a CyBi Well pipettor (CyBio, Jena, Germany). Plate measurements were conducted by the means of a Safire2 microplate reader (TECAN, Maennedorf, Switzerland) and wavelengths of 680 nm and 700 nm were taken for fluorescence excitation and emission acquisition, respectively. The bandwidths were set to 10 nm in both the excitation and the emission path. The fluorescence in each well was excited by three flashes per measurement.

- IC50 (h cationic trypsin): 0.0028 µM
- IC50 (h cathepsin S): > 50 µM
- IC50 (h neutrophil elastase): 91.4 µM
- IC50 (h factor XIIa): 8 µM
- IC50 (h cathepsin C): > 50 µM
- IC50 (h kallikrein 7): 41.5 µM
- IC50 (h factor VIIa): 0.531 µM
- IC50 (h cathepsin K): > 50 µM
- IC50 (h cathepsin L): > 50 µM
- IC50 (h factor Xa): 6.6 µM
- IC50 (h kallikrein 1): 72.4 µM
- IC50 (h cathepsin B): > 50 µM
- IC50 (h matriptase): 0.0065 µM
- IC50 (h chymase): > 50 µM
- IC50 (h cathepsin G): 44.6 µM
- IC50 (h proteinase 3): > 50 µM
- IC50 (h factor XIa): 0.008 µM
- IC50 (h kallikrein 5): 0.1 µM
- IC50 (h plasma kallikrein): 0.002 µM
- IC50 (h pancreatic elastase): > 50 µM
- IC50 (h chymotrypsin): 12.2 µM
Compound: CN(C)C(=O)COC(=O)Cc1ccc(OC(=O)c2ccc(NC(=N)N)cc2)cc1 [Camostat]
- in vivo mPEG-PL-Cy5.5 probe activation in pancreas [1]: reduced probe activation
- probe activation in dissected pancreas (ex vivo) [2]: suppressed
- Angiosense 680 signal in pancreas (edema imaging) [3]: no signal enhancement
- amount of enzymatically active trypsin in pancreas (trypsin [4]): significant reduction in the amount of active trypsin

- protease activation of mPEG-PL-Cy5.5 probe by trypsin in the presence of SPINK1 (trypsin [5]): suppressed to background levels
Compound: SPINK1: highly specific trypsin inhibiting protein; endogenous trypsin inhibitor Kazal type 1 (DSLGREAKCYNELNGCTKIYDPVCGTDGNTYPNECVLCFENRKRQTSILIQKSGPC; UniProt P00995 24-79, looked up)
